Laboratory results published in ChEMBL document CHEMBL3885861, “Open TG-GATES”.

Species: Rattus norvegicus
Test: Open TG-GATES - Regimen: Single
Assay type: toxicity, organism-based, Sprague-Dawley
Set-up: regimen Single, gender Male, age 6 weeks
Details: in vivo, po, 0 mg/kg, route gavage, dose level Control; for APTT / Bas / Eos / Fbg / Hb / Ht / Lym / MCH / MCHC / MCV / Mono / Neu / PT / Plat / RBC / Ret / WBC: tissue Blood; for KIDNEY_L / KIDNEY_R / KIDNEY_TOTAL: tissue Kidney; for LIVER: tissue Liver; for A/G / ALP / ALT / AST / BUN / CRE / Ca / Cl / DBIL / GLC / IP / K / LDH / Na / PL / RALB / TBIL / TC / TG / TP / gamma-GTP: tissue Plasma

Structure (SMILES): Cc1cccc(C)c1OCC(C)N (configuration not stated) [MEXILETINE]
- TERMINAL_BW (3 h): 222.3 g
- APTT (3 h): 22.2 s
- Bas (3 h): 0%
- Eos (3 h): 0.8%
- Fbg (3 h): 310.6 mg/dL
- Hb (3 h): 12.8 g/dL
- Ht (3 h): 39.4%
- Lym (3 h): 80.6%
- MCH (3 h): 21 pg
- MCHC (3 h): 32.4%
- MCV (3 h): 64.8 fL
- Mono (3 h): 1.8%
- Neu (3 h): 16.2%
- PT (3 h): 16.1 s
- Plat (3 h): 107.7 x10_4/uL
- RBC (3 h): 608.6 x10_4/ul
- Ret (3 h): 8.8%
- WBC (3 h): 96.5 x10_2/uL
- KIDNEY_L (3 h): 0.9 g
- KIDNEY_R (3 h): 0.9 g
- KIDNEY_TOTAL (3 h): 1.9 g
- LIVER (3 h): 10.2 g
- A/G (3 h): 1.2
- ALP (3 h): 1498 IU/L
- ALT (3 h): 45.2 IU/L
- AST (3 h): 77.4 IU/L
- BUN (3 h): 13.6 mg/dL
- CRE (3 h): 0.2 mg/dL
- Ca (3 h): 10.6 mg/dL
- Cl (3 h): 107 meq/L
- DBIL (3 h): 0 mg/dL
- GLC (3 h): 192 mg/dL
- IP (3 h): 8.5 mg/dL
- K (3 h): 4 meq/L
- LDH (3 h): 181.2 IU/L
- Na (3 h): 142 meq/L
- PL (3 h): 132.4 mg/dL
- RALB (3 h): 3 g/dL
- TBIL (3 h): 0.016 mg/dL
- TC (3 h): 77 mg/dL
- TG (3 h): 62.8 mg/dL
- TP (3 h): 5.5 g/dL
- gamma-GTP (3 h): 1.6 IU/L
- TERMINAL_BW (6 h): 218.2 g
- APTT (6 h): 22.4 s
- Bas (6 h): 0%
- Eos (6 h): 0.8%
- Fbg (6 h): 305.2 mg/dL
- Hb (6 h): 12.9 g/dL
- Ht (6 h): 39.5%
- Lym (6 h): 78.4%
- MCH (6 h): 20.6 pg
- MCHC (6 h): 32.7%
- MCV (6 h): 63.1 fL
- Mono (6 h): 2.8%
- Neu (6 h): 17.2%
- PT (6 h): 16 s
- Plat (6 h): 113.7 x10_4/uL
- RBC (6 h): 627.6 x10_4/ul
- Ret (6 h): 7.8%
- WBC (6 h): 112.2 x10_2/uL
- KIDNEY_L (6 h): 1 g
- KIDNEY_R (6 h): 1 g
- KIDNEY_TOTAL (6 h): 2 g
- LIVER (6 h): 9.4 g
- A/G (6 h): 1.3
- ALP (6 h): 1119.6 IU/L
- ALT (6 h): 37.4 IU/L
- AST (6 h): 70.2 IU/L
- BUN (6 h): 10.4 mg/dL
- CRE (6 h): 0.2 mg/dL
- Ca (6 h): 10.5 mg/dL
- Cl (6 h): 105.2 meq/L
- DBIL (6 h): 0 mg/dL
- GLC (6 h): 192.4 mg/dL
- IP (6 h): 9.2 mg/dL
- K (6 h): 4.2 meq/L
- LDH (6 h): 187.6 IU/L
- Na (6 h): 140.6 meq/L
- PL (6 h): 125 mg/dL
- RALB (6 h): 3 g/dL
- TBIL (6 h): 0.028 mg/dL
- TC (6 h): 72 mg/dL
- TG (6 h): 66.2 mg/dL
- TP (6 h): 5.4 g/dL
- gamma-GTP (6 h): 1.4 IU/L
- TERMINAL_BW (9 h): 213.9 g
- APTT (9 h): 22.8 s
- Bas (9 h): 0%
- Eos (9 h): 0.8%
- Fbg (9 h): 311 mg/dL
- Hb (9 h): 12.9 g/dL
- Ht (9 h): 40.1%
- Lym (9 h): 77.2%
- MCH (9 h): 20.7 pg
- MCHC (9 h): 32.2%
- MCV (9 h): 64.1 fL
- Mono (9 h): 2.4%
- Neu (9 h): 19.6%
- PT (9 h): 16.2 s
- Plat (9 h): 105.6 x10_4/uL
- RBC (9 h): 625.4 x10_4/ul
- Ret (9 h): 8%
- WBC (9 h): 86.8 x10_2/uL
- KIDNEY_L (9 h): 0.9 g
- KIDNEY_R (9 h): 0.9 g
- KIDNEY_TOTAL (9 h): 1.8 g
- LIVER (9 h): 8.7 g
- A/G (9 h): 1.3
- ALP (9 h): 1333.8 IU/L
- ALT (9 h): 35.6 IU/L
- AST (9 h): 66.2 IU/L
- BUN (9 h): 12.2 mg/dL
- CRE (9 h): 0.2 mg/dL
- Ca (9 h): 10.5 mg/dL
- Cl (9 h): 105.2 meq/L
- DBIL (9 h): 0 mg/dL
- GLC (9 h): 188.8 mg/dL
- IP (9 h): 9.4 mg/dL
- K (9 h): 4.2 meq/L
- LDH (9 h): 133.6 IU/L
- Na (9 h): 141.6 meq/L
- PL (9 h): 122 mg/dL
- RALB (9 h): 3 g/dL
- TBIL (9 h): 0.02 mg/dL
- TC (9 h): 66.2 mg/dL
- TG (9 h): 53.2 mg/dL
- TP (9 h): 5.5 g/dL
- gamma-GTP (9 h): 1 IU/L
- TERMINAL_BW (24 h): 223.6 g
- APTT (24 h): 20.9 s
- Bas (24 h): 0%
- Eos (24 h): 1%
- Fbg (24 h): 304 mg/dL
- Hb (24 h): 13 g/dL
- Ht (24 h): 40.2%
- Lym (24 h): 78.4%
- MCH (24 h): 20.6 pg
- MCHC (24 h): 32.3%
- MCV (24 h): 63.6 fL
- Mono (24 h): 2%
- Neu (24 h): 17.6%
- PT (24 h): 16.4 s
- Plat (24 h): 128.5 x10_4/uL
- RBC (24 h): 632.6 x10_4/ul
- Ret (24 h): 6.7%
- WBC (24 h): 88.8 x10_2/uL
- KIDNEY_L (24 h): 1 g
- KIDNEY_R (24 h): 1 g
- KIDNEY_TOTAL (24 h): 1.9 g
- LIVER (24 h): 9.9 g
- A/G (24 h): 1.3
- ALP (24 h): 1840.4 IU/L
- ALT (24 h): 49.8 IU/L
- AST (24 h): 73.8 IU/L
- BUN (24 h): 15.6 mg/dL
- CRE (24 h): 0.2 mg/dL
- Ca (24 h): 10.7 mg/dL
- Cl (24 h): 107 meq/L
- DBIL (24 h): 0 mg/dL
- GLC (24 h): 196.4 mg/dL
- IP (24 h): 7.6 mg/dL
- K (24 h): 4 meq/L
- LDH (24 h): 166 IU/L
- Na (24 h): 143.2 meq/L
- PL (24 h): 130.6 mg/dL
- RALB (24 h): 3.1 g/dL
- TBIL (24 h): 0.008 mg/dL
- TC (24 h): 70 mg/dL
- TG (24 h): 74.6 mg/dL
- TP (24 h): 5.6 g/dL
- gamma-GTP (24 h): 1.8 IU/L
